# Results from ChEMBL document CHEMBL1671661, “Inhibition of intracellular growth of Salmonella enterica serovar Typhimurium in tissue culture by antisense peptide-phosphorodiamidate morpholino oligomer” (Antimicrob Agents Chemother, 2009).
# Calls of active or inactive are those of the source. The rule behind the calls is not given here.
# Key:
# Salmonella typhimurium [1] = experiment: Antibacterial activity against 9.0 x 10^7 CFU/ml Salmonella enterica serovar Typhimurium 14028s assessed as decrease in bacterial viable cell count at 2.5 uM by spectrophotometry; format: functional, organism-based; settings: Salmonella enterica subsp. enterica serovar Typhimurium
# Salmonella typhimurium [2] = experiment: Antibacterial activity against 9.0 x 10^7 CFU/ml Salmonella enterica serovar Typhimurium 14028s assessed as decrease in growth rate at 2.5 uM by spectrophotometry; format: functional, organism-based; settings: Salmonella enterica subsp. enterica serovar Typhimurium
# Salmonella typhimurium [3] = experiment: Antibacterial activity against Salmonella enterica serovar Typhimurium 14028s by CLSI M7-A7 microdilution method; format: functional, Salmonella enterica subsp. enterica serovar Typhimurium
# Salmonella typhimurium [4] = experiment: Antibacterial activity against 9.0 x 10^7 CFU/ml Salmonella enterica serovar Typhimurium 14028s assessed as decrease in growth rate at 50 uM by spectrophotometry; format: functional, organism-based; settings: Salmonella enterica subsp. enterica serovar Typhimurium
# Serum = experiment: Drug concentration in rat serum administered as single bolus dose; format: ADME, organism-based; settings: in vivo
# Salmonella typhimurium [5] = experiment: Antibacterial activity against 9.0 x 10^7 CFU/ml Salmonella enterica serovar Typhimurium 14028s infected in RAW264.7 mouse macrophages assessed as decrease in intracellular bacterial level at 3 uM measured 2 hrs post infection; format: functional
# Salmonella typhimurium [6] = experiment: Antibacterial activity against 9.0 x 10^7 CFU/ml Salmonella enterica serovar Typhimurium 14028s infected in RAW264.7 mouse macrophages assessed as decrease in intracellular bacterial level at 3 uM measured 42 hrs post infection relative to untreated control; format: functional
# Salmonella typhimurium [7] = experiment: Antibacterial activity against 9.0 x 10^7 CFU/ml Salmonella enterica serovar Typhimurium 14028s infected in RAW264.7 mouse macrophages assessed as decrease in intracellular bacterial level at 3 uM measured 18 hrs post infection; format: functional, organism-based; settings: Salmonella enterica subsp. enterica serovar Typhimurium
# Salmonella typhimurium [8] = experiment: Antibacterial activity against 9.0 x 10^7 CFU/ml Salmonella enterica serovar Typhimurium 14028s assessed as decrease in bacterial viable cell count at 2.5 uM by spectrophotometry relative to untreated control; format: functional, Salmonella enterica subsp. enterica serovar Typhimurium
# [9] = Salmonella enterica subsp. enterica serovar Typhimurium
SMILES,MIC (Salmonella typhimurium [3]),Drug uptake (Serum),Activity (Salmonella typhimurium [1]),Activity (Salmonella typhimurium [2]),Activity (Salmonella typhimurium [4]),Activity (Salmonella typhimurium [5]; [9]),Activity (Salmonella typhimurium [6]; [9]),Activity (Salmonella typhimurium [7]),Activity (Salmonella typhimurium [5]),fold change (FC) (Salmonella typhimurium [6]),fold change (FC) (Salmonella typhimurium [8])
CC(=O)N[C@@H](CCCNC(=N)N)C(=O)NCCCCCC(=O)N[C@@H](CCCNC(=N)N)C(=O)N[C@@H](CCCNC(=N)N)C(=O)NCCCCCC(=O)N[C@@H](CCCNC(=N)N)C(=O)[C@H](CCCNC(=N)N)NC(=O)CCCCCNC(=O)N[C@@H](CCCNC(=N)N)C(=O)N[C@@H](CCCNC(=N)N)C(=O)NCCCCCC(=O)N[C@@H](CCCNC(=N)N)C(=O)NCCCCCC(=O)NCCC(=O)N1C[C@@H](COP(=O)(N(C)C)N2C[C@@H](COP(=O)(N(C)C)N3C[C@@H](COP(=O)(N(C)C)N4C[C@@H](COP(=O)(N(C)C)N5C[C@@H](COP(=O)(N(C)C)N6C[C@@H](COP(=O)(N(C)C)N7C[C@@H](COP(=O)(N(C)C)N8C[C@@H](COP(=O)(N(C)C)N9C[C@@H](COP(=O)(N(C)C)N%10C[C@@H](COP(=O)(N(C)C)N%11C[C@@H](CO)O[C@@H](n%12cc(C)c(=O)[nH]c%12=O)C%11)O[C@@H](n%11ccc(N)nc%11=O)C%10)O[C@@H](n%10cc(C)c(=O)[nH]c%10=O)C9)O[C@@H](n9ccc(N)nc9=O)C8)O[C@@H](n8cnc9c(N)ncnc98)C7)O[C@@H](n7cnc8c(=O)[nH]c(N)nc87)C6)O[C@@H](n6cnc7c(N)ncnc76)C5)O[C@@H](n5cc(C)c(=O)[nH]c5=O)C4)O[C@@H](n4cnc5c(=O)[nH]c(N)nc54)C3)O[C@@H](n3cnc4c(=O)[nH]c(N)nc43)C2)O[C@@H](n2cc(C)c(=O)[nH]c2=O)C1 (stereo partly drawn),> 160 µM,–,inactive,inactive,–,–,–,–,–,–,–
CC1(C)S[C@@H]2[C@H](NC(=O)[C@H](N)c3ccccc3)C(=O)N2[C@H]1C(=O)O [AMPICILLIN],20 µM,–,–,–,–,–,–,–,–,–,–
CC(=O)N[C@@H](CCCNC(=N)N)C(=O)NCCCCCC(=O)N[C@@H](CCCNC(=N)N)C(=O)N[C@@H](CCCNC(=N)N)C(=O)NCCCCCC(=O)N[C@@H](CCCNC(=N)N)C(=O)[C@H](CCCNC(=N)N)NC(=O)CCCCCNC(=O)N[C@@H](CCCNC(=N)N)C(=O)N[C@@H](CCCNC(=N)N)C(=O)NCCCCCC(=O)N[C@@H](CCCNC(=N)N)C(=O)NCCCCCC(=O)NCCC(=O)N1C[C@@H](COP(=O)(N2CCNCC2)N2C[C@@H](COP(=O)(N(C)C)N3C[C@@H](COP(=O)(N(C)C)N4C[C@@H](COP(=O)(N5CCNCC5)N5C[C@@H](COP(=O)(N(C)C)N6C[C@@H](COP(=O)(N(C)C)N7C[C@@H](COP(=O)(N(C)C)N8C[C@@H](COP(=O)(N(C)C)N9C[C@@H](COP(=O)(N%10CCNCC%10)N%10C[C@@H](COP(=O)(N(C)C)N%11C[C@@H](CO)O[C@@H](n%12cc(C)c(=O)[nH]c%12=O)C%11)O[C@@H](n%11ccc(N)nc%11=O)C%10)O[C@@H](n%10cc(C)c(=O)[nH]c%10=O)C9)O[C@@H](n9ccc(N)nc9=O)C8)O[C@@H](n8cnc9c(N)ncnc98)C7)O[C@@H](n7cnc8c(=O)[nH]c(N)nc87)C6)O[C@@H](n6cnc7c(N)ncnc76)C5)O[C@@H](n5cc(C)c(=O)[nH]c5=O)C4)O[C@@H](n4cnc5c(=O)[nH]c(N)nc54)C3)O[C@@H](n3cnc4c(=O)[nH]c(N)nc43)C2)O[C@@H](n2cc(C)c(=O)[nH]c2=O)C1 (stereo partly drawn),> 160 µM,–,inactive,inactive,–,inactive,inactive,inactive,–,–,–

# The remaining compounds from weak to strong by MIC (Salmonella typhimurium [3]), led by results:
MIC (Salmonella typhimurium [3]),Drug uptake (Serum),SMILES,Activity (Salmonella typhimurium [1]),Activity (Salmonella typhimurium [2]),Activity (Salmonella typhimurium [4]),Activity (Salmonella typhimurium [5]; [9]),Activity (Salmonella typhimurium [6]; [9]),Activity (Salmonella typhimurium [7]),Activity (Salmonella typhimurium [5]),fold change (FC) (Salmonella typhimurium [6]),fold change (FC) (Salmonella typhimurium [8])
1.25 µM,1 µg/mL,CC(=O)N[C@@H](CCCNC(=N)N)C(=O)NCCCCCC(=O)N[C@@H](CCCNC(=N)N)C(=O)N[C@@H](CCCNC(=N)N)C(=O)NCCCCCC(=O)N[C@@H](CCCNC(=N)N)C(=O)[C@H](CCCNC(=N)N)NC(=O)CCCCCNC(=O)N[C@@H](CCCNC(=N)N)C(=O)N[C@@H](CCCNC(=N)N)C(=O)NCCCCCC(=O)N[C@@H](CCCNC(=N)N)C(=O)NCCCCCC(=O)NCCC(=O)N1C[C@@H](COP(=O)(N(C)C)N2C[C@@H](COP(=O)(N(C)C)N3C[C@@H](COP(=O)(N(C)C)N4C[C@@H](COP(=O)(N(C)C)N5C[C@@H](COP(=O)(N(C)C)N6C[C@@H](COP(=O)(N(C)C)N7C[C@@H](COP(=O)(N(C)C)N8C[C@@H](COP(=O)(N(C)C)N9C[C@@H](COP(=O)(N(C)C)N%10C[C@@H](COP(=O)(N(C)C)N%11C[C@@H](CO)O[C@@H](n%12ccc(N)nc%12=O)C%11)O[C@@H](n%11cc(C)c(=O)[nH]c%11=O)C%10)O[C@@H](n%10cc(C)c(=O)[nH]c%10=O)C9)O[C@@H](n9ccc(N)nc9=O)C8)O[C@@H](n8cnc9c(=O)[nH]c(N)nc98)C7)O[C@@H](n7cnc8c(N)ncnc87)C6)O[C@@H](n6cc(C)c(=O)[nH]c6=O)C5)O[C@@H](n5cnc6c(N)ncnc65)C4)O[C@@H](n4cnc5c(=O)[nH]c(N)nc54)C3)O[C@@H](n3cc(C)c(=O)[nH]c3=O)C2)O[C@@H](n2cnc3c(=O)[nH]c(N)nc32)C1 (stereo partly drawn),Active,inactive,Active,–,–,–,–,–,–
0.156 µM,1 µg/mL,CC(=O)N[C@@H](CCCNC(=N)N)C(=O)NCCCCCC(=O)N[C@@H](CCCNC(=N)N)C(=O)N[C@@H](CCCNC(=N)N)C(=O)NCCCCCC(=O)N[C@@H](CCCNC(=N)N)C(=O)[C@H](CCCNC(=N)N)NC(=O)CCCCCNC(=O)N[C@@H](CCCNC(=N)N)C(=O)N[C@@H](CCCNC(=N)N)C(=O)NCCCCCC(=O)N[C@@H](CCCNC(=N)N)C(=O)NCCCCCC(=O)NCCC(=O)N1C[C@@H](COP(=O)(N(C)C)N2C[C@@H](COP(=O)(N3CCNCC3)N3C[C@@H](COP(=O)(N(C)C)N4C[C@@H](COP(=O)(N(C)C)N5C[C@@H](COP(=O)(N6CCNCC6)N6C[C@@H](COP(=O)(N(C)C)N7C[C@@H](COP(=O)(N(C)C)N8C[C@@H](COP(=O)(N(C)C)N9C[C@@H](COP(=O)(N(C)C)N%10C[C@@H](COP(=O)(N%11CCNCC%11)N%11C[C@@H](CO)O[C@@H](n%12ccc(N)nc%12=O)C%11)O[C@@H](n%11cc(C)c(=O)[nH]c%11=O)C%10)O[C@@H](n%10cc(C)c(=O)[nH]c%10=O)C9)O[C@@H](n9ccc(N)nc9=O)C8)O[C@@H](n8cnc9c(=O)[nH]c(N)nc98)C7)O[C@@H](n7cnc8c(N)ncnc87)C6)O[C@@H](n6cc(C)c(=O)[nH]c6=O)C5)O[C@@H](n5cnc6c(N)ncnc65)C4)O[C@@H](n4cnc5c(=O)[nH]c(N)nc54)C3)O[C@@H](n3cc(C)c(=O)[nH]c3=O)C2)O[C@@H](n2cnc3c(=O)[nH]c(N)nc32)C1 (stereo partly drawn),Active,Active,–,–,–,Active,56%,2,3
